The values that follow come from ChEMBL document CHEMBL4184275 (Bioorg Med Chem Lett, 2018).

Bridge positions count the residues as written; N and C are the ends. Peptide text beside a SMILES is read from it.

Assay [1] addresses T1, Prolyl oligopeptidase family protein (Flavobacterium psychrophilum (strain JIP02/86 / ATCC 49511), UniProt A6H249).
T1 sequence (A6H249 whole entry): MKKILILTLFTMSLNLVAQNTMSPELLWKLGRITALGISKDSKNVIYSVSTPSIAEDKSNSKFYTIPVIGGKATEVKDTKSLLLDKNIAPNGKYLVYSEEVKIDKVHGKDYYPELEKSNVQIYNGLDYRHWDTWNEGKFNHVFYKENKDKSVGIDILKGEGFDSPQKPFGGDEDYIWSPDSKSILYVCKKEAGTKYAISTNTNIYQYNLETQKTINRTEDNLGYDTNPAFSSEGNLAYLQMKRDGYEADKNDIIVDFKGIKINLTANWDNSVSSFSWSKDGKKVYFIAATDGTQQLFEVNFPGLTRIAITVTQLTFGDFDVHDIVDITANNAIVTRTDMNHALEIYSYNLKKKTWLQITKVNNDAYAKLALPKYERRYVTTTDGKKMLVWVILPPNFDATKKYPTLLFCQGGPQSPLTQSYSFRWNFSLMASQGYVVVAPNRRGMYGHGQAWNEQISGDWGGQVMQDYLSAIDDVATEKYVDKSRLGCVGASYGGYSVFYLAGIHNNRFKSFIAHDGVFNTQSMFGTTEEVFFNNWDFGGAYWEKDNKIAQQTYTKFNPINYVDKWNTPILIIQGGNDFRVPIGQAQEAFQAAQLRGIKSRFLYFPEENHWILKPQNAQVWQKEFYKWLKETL
The assay is described as follows: Inhibition of Flavobacterium POP preincubated for 5 mins followed by Z-Gly-Pro-pNA substrate measured after 30 mins.

The subject of assay [2] is MCF7. The assay is described as follows: Antiproliferative activity against human MCF7 cells. Format: functional, cell-based.
In assay [3] the test system is HL-60. The assay is described as follows: cells. The conditions noted are these: Homo sapiens.
Description: Antiproliferative activity against human HL60 cells
Assay [4] has as its target T2, Prolyl endopeptidase (Homo sapiens, UniProt P48147).
T2 sequence (P48147 whole entry): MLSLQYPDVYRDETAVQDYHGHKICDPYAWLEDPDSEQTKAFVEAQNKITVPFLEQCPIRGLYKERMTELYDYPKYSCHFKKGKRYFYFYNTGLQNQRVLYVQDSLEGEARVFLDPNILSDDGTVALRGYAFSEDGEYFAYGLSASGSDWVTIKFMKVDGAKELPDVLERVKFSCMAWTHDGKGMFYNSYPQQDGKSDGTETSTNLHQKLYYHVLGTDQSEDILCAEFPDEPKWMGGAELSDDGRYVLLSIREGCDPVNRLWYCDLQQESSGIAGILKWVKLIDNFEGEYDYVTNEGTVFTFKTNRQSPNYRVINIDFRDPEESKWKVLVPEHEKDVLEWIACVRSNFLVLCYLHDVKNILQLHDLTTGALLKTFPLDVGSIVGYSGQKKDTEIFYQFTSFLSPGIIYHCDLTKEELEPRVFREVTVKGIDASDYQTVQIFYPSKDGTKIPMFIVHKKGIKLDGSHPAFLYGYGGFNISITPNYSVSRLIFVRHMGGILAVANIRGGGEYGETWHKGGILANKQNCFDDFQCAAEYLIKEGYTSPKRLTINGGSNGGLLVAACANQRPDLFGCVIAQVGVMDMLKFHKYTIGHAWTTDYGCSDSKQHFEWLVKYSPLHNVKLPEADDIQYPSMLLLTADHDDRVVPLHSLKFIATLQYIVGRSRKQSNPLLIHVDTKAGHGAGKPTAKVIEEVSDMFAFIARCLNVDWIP
The assay is described as follows: Inhibition of prolyl oligopeptidase (unknown origin).

What is called IC50 is the midpoint of a concentration-inhibition curve. Lower therefore signals greater potency. `CC(=O)Oc1c(OC(C)=O)c2c3cc(O)c(O)cc3oc2c2oc3cc(O)c(O)cc3c12`: the IC50 was 770 nM in assay [1], 26900 nM in assay [2] and 2000 nM in assay [3].
Turning to `CC[C@H](C)[C@H](NC(=O)[C@H](Cc1ccccc1)NC(=O)[C@@H](NC(=O)[C@H](Cc1cnc[nH]1)NC(=O)CNC(=O)CNC(=O)[C@H](Cc1ccccc1)NC(=O)[C@H](CC(C)C)NC(=O)[C@@H]1CC(=O)NCC(=O)N[C@@H](Cc2ccc(O)cc2)C(=O)N2CCC[C@H]2C(=O)N[C@@H](Cc2c[nH]c3ccccc23)C(=O)N[C@@H](Cc2c[nH]c3ccccc23)C(=O)N[C@@H](CC(=O)O)C(=O)N[C@@H](Cc2ccc(O)cc2)C(=O)N[C@@H](CCCNC(=N)N)C(=O)N1)[C@@H](C)O)C(=O)N[C@@H](CO)C(=O)N1CCC[C@H]1C(=O)O` (GYPWWDYRDLFGGHTFISP-OH; lactam N-9), the IC50 was 950 nM in assay [4] and more than 20000 nM in assay [3].
In assay [3], `CC[C@@]1(O)C(=O)OCc2c1cc1n(c2=O)Cc2cc3ccccc3nc2-1` [CAMPTOTHECIN] registered an IC50 of 6.7 nM.
For `CC(=O)Oc1c2oc3cc(O)c(O)cc3c2c(OC(C)=O)c2oc3cc(O)c(O)cc3c12` [POLYOZELLIN], the IC50 was 1200 nM in assay [1], 35100 nM in assay [2] and 1100 nM in assay [3].
